The target of assay [1] is Transcription initiation factor TFIID subunit 1-like (Homo sapiens) (UniProt Q8IZX4). Description: Inhibition of human recombinant TAF1L at 40 nM related to control ULK1.
Assay [2] addresses Serine/threonine-protein kinase N2 (Homo sapiens) (UniProt Q16513). As to the kind of experiment: Inhibition of human recombinant PKN2 at 40 nM in presence of ATP by radiometric assay relative to control.
Assay [3] has as its target Tyrosine-protein kinase Fes/Fps (Homo sapiens) (UniProt P07332). As to the kind of experiment: Inhibition of human recombinant FES at 500 nM related to control ULK1.
The target of assay [4] is RAC-beta serine/threonine-protein kinase (Homo sapiens) (UniProt P31751). Description: Inhibition of human recombinant AKT2 at 500 nM related to control ULK1.
Assay [5] addresses Macrophage-stimulating protein receptor (Homo sapiens) (UniProt Q04912). As to the kind of experiment: Inhibition of human recombinant RON at 500 nM related to control ULK1.
Assay [6] concerns the target T1, cGMP-dependent protein kinase 1 (Homo sapiens) (UniProt Q13976).
T1 sequence (whole entry): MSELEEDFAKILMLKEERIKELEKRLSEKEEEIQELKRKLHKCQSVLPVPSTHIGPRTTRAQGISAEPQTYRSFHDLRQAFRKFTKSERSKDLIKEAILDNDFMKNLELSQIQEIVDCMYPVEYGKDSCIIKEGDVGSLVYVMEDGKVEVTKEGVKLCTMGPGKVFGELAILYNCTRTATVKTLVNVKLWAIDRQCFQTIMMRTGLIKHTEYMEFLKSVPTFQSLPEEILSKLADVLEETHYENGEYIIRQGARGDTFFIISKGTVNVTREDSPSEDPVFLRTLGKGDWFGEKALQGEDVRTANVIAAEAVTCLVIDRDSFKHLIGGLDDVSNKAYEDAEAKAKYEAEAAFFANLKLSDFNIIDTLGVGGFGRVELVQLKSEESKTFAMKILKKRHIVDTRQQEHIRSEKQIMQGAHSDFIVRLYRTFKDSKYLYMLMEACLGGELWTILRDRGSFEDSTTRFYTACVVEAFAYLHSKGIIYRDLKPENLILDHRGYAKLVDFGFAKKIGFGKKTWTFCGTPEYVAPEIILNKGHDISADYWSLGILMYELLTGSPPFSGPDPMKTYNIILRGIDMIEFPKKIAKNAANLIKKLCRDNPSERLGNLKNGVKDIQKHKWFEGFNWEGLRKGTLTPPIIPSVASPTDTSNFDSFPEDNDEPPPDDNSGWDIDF
As to the kind of experiment: Inhibition of human recombinant PKG1 at 500 nM related to control ULK1.

Assay [7] deals with Calcium/calmodulin-dependent protein kinase type 1D (Homo sapiens) (UniProt Q8IU85). Description: Inhibition of human recombinant CaMK1d at 500 nM in presence of ATP by radiometric assay relative to control.
The target in assay [8] is Mitogen-activated protein kinase 1 (Homo sapiens) (UniProt P28482). As to the kind of experiment: Inhibition of human recombinant Erk2 at 500 nM in presence of ATP by radiometric assay relative to control.
Mitogen-activated protein kinase 1 (Homo sapiens), sequence (P28482 whole entry): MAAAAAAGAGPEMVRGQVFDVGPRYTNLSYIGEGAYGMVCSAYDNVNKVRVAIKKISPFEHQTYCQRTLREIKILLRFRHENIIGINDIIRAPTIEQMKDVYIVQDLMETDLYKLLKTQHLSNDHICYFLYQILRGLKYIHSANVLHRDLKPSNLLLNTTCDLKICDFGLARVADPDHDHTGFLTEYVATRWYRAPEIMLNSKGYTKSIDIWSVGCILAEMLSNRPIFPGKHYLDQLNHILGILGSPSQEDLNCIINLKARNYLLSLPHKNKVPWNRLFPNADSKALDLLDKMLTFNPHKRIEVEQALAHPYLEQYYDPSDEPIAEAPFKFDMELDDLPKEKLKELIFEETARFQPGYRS
Assay [9] has as its target Calcium/calmodulin-dependent protein kinase type 1 (Homo sapiens) (UniProt Q14012). Description: Inhibition of human recombinant CaMK1a at 500 nM in presence of ATP by radiometric assay relative to control.
The target in assay [10] is Protein kinase C eta type (Homo sapiens) (UniProt P24723). Description: Inhibition of human recombinant PKCH at 500 nM related to control ULK1.
Protein kinase C eta type (Homo sapiens), sequence (P24723 whole entry): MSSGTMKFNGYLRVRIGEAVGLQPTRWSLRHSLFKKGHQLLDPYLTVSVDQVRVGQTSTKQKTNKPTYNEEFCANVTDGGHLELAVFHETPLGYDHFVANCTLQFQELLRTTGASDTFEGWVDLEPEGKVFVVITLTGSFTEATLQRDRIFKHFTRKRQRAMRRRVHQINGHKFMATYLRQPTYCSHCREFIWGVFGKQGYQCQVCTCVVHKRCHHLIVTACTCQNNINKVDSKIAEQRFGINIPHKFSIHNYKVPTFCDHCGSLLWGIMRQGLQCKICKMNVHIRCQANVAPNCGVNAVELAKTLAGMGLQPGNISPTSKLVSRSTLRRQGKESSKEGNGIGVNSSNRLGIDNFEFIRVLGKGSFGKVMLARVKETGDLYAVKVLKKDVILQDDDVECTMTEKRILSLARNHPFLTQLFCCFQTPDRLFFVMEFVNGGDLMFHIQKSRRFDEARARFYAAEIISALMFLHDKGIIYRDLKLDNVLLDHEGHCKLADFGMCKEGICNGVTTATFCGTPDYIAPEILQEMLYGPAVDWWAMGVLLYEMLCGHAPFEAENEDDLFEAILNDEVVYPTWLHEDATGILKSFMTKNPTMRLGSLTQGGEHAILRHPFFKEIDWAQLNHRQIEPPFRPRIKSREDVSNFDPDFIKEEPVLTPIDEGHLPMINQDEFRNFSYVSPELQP
The target of assay [11] is Interferon-induced, double-stranded RNA-activated protein kinase (Homo sapiens) (UniProt P19525). Description: Inhibition of human recombinant PKR at 500 nM related to control ULK1.
Interferon-induced, double-stranded RNA-activated protein kinase (Homo sapiens), sequence (P19525 whole entry): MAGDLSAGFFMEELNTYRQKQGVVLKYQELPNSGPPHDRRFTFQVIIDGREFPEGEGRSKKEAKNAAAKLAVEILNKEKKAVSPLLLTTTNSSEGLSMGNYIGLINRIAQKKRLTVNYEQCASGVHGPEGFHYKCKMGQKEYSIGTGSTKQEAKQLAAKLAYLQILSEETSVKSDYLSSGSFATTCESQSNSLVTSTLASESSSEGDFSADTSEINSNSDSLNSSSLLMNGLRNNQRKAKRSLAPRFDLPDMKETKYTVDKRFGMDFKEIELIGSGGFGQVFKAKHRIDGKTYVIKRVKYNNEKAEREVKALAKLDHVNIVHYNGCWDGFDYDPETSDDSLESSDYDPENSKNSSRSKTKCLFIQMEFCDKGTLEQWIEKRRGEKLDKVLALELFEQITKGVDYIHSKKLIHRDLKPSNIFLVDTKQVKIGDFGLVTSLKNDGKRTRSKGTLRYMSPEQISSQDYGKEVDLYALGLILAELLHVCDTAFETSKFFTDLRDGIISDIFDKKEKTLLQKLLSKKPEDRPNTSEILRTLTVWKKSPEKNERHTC
Assay [12] concerns the target Myosin light chain kinase 2, skeletal/cardiac muscle (Homo sapiens) (UniProt Q9H1R3). Description: Inhibition of human recombinant skMLCK at 500 nM related to control ULK1.
Assay [13] deals with Proto-oncogene tyrosine-protein kinase receptor Ret (Homo sapiens) (UniProt P07949). Description: Inhibition of human recombinant RET at 15 nM related to control ULK1.
Assay [14] has as its target T2, Serine/threonine-protein kinase ICK (Homo sapiens) (UniProt Q9UPZ9).
T2 sequence (whole entry): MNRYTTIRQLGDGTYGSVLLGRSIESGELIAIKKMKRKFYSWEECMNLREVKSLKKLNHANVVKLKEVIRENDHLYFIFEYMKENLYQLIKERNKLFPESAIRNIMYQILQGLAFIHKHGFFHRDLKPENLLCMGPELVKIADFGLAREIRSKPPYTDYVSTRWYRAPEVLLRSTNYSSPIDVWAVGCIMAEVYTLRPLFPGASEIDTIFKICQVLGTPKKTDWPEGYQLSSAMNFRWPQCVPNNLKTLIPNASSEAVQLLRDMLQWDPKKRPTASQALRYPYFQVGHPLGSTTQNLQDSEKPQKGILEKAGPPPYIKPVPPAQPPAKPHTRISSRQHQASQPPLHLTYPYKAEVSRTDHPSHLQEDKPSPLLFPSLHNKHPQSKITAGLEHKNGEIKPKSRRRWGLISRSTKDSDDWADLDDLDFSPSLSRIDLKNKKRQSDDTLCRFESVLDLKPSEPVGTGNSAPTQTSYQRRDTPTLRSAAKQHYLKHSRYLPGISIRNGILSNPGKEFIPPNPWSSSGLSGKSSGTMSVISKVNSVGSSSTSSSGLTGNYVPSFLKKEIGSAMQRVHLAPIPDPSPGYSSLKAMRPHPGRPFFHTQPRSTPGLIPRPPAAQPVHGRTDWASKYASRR
Description: Inhibition of human recombinant ICK at 15 nM in presence of ATP by radiometric assay relative to control.

Assay [15] concerns the target NT-3 growth factor receptor (Homo sapiens) (UniProt Q16288). As to the kind of experiment: Inhibition of human recombinant TRKC at 15 nM in presence of ATP by radiometric assay relative to control.

Structures are written as SMILES.

Serine/threonine-protein kinase N2 (Homo sapiens), sequence (Q16513 whole entry, looked up): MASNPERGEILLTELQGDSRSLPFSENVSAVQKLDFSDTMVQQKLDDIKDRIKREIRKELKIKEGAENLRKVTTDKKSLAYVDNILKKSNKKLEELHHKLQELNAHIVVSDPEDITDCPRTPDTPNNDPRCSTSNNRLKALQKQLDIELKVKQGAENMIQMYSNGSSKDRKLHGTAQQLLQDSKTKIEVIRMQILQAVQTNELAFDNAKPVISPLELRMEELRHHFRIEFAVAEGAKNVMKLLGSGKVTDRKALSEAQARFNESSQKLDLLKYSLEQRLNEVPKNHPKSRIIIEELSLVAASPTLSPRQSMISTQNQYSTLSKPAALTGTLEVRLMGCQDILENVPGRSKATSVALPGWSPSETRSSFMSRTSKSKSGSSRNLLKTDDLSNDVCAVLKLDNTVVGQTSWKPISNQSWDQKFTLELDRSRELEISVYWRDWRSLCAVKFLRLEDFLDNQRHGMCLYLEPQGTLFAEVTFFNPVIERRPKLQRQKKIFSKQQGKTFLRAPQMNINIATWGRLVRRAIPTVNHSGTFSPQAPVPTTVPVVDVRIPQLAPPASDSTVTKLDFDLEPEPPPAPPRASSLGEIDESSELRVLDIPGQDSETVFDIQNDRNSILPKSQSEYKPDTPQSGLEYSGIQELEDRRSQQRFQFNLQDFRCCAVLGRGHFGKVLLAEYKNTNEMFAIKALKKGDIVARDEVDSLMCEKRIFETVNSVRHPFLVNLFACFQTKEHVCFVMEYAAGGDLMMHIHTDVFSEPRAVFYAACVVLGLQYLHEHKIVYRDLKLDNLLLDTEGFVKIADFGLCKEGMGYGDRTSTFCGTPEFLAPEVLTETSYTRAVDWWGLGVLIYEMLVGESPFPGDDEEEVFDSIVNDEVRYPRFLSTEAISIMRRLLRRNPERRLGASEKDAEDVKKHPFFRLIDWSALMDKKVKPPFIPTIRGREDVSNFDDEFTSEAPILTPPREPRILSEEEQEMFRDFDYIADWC
Tyrosine-protein kinase Fes/Fps (Homo sapiens), sequence (P07332 whole entry): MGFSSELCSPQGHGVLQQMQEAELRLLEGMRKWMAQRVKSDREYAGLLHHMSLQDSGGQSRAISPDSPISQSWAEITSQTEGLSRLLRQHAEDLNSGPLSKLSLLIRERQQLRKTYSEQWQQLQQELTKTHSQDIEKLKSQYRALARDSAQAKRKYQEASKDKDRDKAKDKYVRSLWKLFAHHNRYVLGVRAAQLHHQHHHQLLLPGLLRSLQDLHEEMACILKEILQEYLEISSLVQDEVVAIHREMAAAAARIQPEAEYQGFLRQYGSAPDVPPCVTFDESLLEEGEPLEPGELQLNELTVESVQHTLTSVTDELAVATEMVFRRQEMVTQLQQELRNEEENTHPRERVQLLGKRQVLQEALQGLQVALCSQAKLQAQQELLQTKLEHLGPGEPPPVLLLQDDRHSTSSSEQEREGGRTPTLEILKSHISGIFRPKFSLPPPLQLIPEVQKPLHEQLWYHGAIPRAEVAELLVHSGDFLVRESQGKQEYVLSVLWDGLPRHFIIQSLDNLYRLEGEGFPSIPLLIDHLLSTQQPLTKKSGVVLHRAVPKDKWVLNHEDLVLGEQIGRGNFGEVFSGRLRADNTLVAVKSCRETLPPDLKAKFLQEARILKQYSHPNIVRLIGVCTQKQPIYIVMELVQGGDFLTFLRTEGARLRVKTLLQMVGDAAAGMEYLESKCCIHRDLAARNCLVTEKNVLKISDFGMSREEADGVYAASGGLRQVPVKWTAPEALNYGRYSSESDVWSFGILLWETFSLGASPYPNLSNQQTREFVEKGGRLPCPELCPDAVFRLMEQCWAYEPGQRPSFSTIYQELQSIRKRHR
NT-3 growth factor receptor (Homo sapiens), sequence (Q16288 32-839 limits assumed): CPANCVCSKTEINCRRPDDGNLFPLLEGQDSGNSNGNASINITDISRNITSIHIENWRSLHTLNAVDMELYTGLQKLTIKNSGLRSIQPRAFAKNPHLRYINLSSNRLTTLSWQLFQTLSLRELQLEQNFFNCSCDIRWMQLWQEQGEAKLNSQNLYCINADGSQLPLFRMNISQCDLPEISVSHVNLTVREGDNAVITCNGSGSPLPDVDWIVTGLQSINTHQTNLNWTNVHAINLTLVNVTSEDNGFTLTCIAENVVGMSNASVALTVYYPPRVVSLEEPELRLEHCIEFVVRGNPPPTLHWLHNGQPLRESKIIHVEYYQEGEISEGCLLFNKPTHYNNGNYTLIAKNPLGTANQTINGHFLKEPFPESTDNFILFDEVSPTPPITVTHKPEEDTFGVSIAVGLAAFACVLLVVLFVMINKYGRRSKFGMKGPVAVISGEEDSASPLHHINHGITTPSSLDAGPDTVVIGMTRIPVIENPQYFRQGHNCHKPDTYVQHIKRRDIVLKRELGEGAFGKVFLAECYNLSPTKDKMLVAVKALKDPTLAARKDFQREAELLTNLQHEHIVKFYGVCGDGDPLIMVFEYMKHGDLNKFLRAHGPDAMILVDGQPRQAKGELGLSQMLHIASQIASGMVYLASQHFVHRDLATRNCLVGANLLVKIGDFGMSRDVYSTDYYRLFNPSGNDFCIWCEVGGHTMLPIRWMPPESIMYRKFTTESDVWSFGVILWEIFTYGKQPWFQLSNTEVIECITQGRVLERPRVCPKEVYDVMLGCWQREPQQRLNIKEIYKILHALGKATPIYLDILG
Myosin light chain kinase 2, skeletal/cardiac muscle (Homo sapiens), sequence (Q9H1R3 whole entry): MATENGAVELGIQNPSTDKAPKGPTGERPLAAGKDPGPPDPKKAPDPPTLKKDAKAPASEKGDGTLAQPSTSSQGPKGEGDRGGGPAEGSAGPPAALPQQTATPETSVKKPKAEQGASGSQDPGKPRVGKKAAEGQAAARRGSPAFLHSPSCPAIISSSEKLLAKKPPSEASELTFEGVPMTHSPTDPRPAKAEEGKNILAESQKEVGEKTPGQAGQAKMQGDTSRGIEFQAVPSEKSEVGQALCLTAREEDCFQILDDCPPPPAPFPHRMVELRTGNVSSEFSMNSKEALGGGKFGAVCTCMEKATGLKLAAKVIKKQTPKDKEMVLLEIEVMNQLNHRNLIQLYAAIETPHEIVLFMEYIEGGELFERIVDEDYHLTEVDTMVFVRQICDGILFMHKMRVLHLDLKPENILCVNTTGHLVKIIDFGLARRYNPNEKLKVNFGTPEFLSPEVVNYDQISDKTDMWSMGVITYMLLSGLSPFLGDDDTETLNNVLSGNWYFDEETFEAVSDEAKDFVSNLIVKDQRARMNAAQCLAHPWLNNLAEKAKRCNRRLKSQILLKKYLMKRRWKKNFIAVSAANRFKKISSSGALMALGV

The term inhibition denotes how much of the control response was suppressed. For `O=C(N[C@@H](C1CC1)C(F)(F)F)c1cc(-c2cnn3cc(-c4ccc(F)cc4)cnc23)cs1`, the fold change (FC) in assay [1] worked out at 0.64. Also, the inhibition in assay [2] amounted to 0%.

Turning to `CNC(=O)c1ccccc1Oc1nc(Nc2cc(OC)c(OC)c(OC)c2)ncc1Br`, the fold change (FC) in assay [3] amounted to 0.38; in assay [4] it was 0.09; in [5], 0.01; in assay [6] it was 0.05; in assay [10] it was 0.09; in assay [11], 0.05. In addition, the fold change (FC) in assay [12] turned out to be 0. In addition, the figures for the inhibition in [7], in [8] and in assay [9] were 5%, 0% and 0%, respectively.

With `CC(C)[C@H](NC(=O)c1cc(-c2cnn3cc(-c4ccc(OCCN5CCCCC5)cc4)cnc23)cs1)C(F)(F)F`, the fold change (FC) in assay [13] turned out to be 0.16. The inhibition in assay [14] and in [15] was 0% throughout.

The values are drawn from ChEMBL document CHEMBL5653631, “A Potent and Selective ULK1 Inhibitor Suppresses Autophagy and Sensitizes Cancer Cells to Nutrient Stress” (iScience, 2018).
